Assay results: US7417054B2, “Naphthyridine compounds” (Janssen Pharmaceutica N.V., priority 2005, dated 2008)
Counter-ions that a name gives are not always drawn. Like-named read-outs stand apart in the source and are kept apart here.

Experiments:
human H3 receptor = target: T1, human H3 receptor (Homo sapiens, UniProt Q9Y5N1); assay: H3 receptor binding, N-[3H]-α-methylhistamine displacement on SK-N-MC cell membranes; conditions: cloned human H3 receptor in SK-N-MC cell membranes; 0.8 nM N-[3H]-α-methylhistamine; 60 min at 25° C.
T1 construct: expressed in transfected cells; host or cells: SK-N-MC cells

Rat SERT = Rat SERT (Rattus norvegicus, UniProt P31652); assay: Rat brain SERT binding, [3H]-Citalopram displacement on rat brain membranes
human SERT = target: T2, human SERT (Homo sapiens, UniProt P31645); assay: Human SERT binding, 3H-citalopram displacement on HEK293 membranes; conditions: HEK293 membranes expressing the human SERT, rt for 1 h
T2 construct: expressed in transfected cells; host or cells: HEK293
Method: Homogenized HEK293 (Human Embryonic Kidney) membranes expressing the human SERT were incubated with ^3H-citalopram (SERT) at rt for 1 h in 50 mM Tris, 120 mM NaCl, 5 mM KCl (pH 7.4). […] The membranes were washed and the radioactivity was counted as above.

[1] = Rat SERT Ki (nM), rat brain membranes without cerebellum, 0.6 nM [3H]-Citalopram, 60 min at 25° C.
[2] = read-out: Rat SERT Ki, rat brain membranes without cerebellum, 0.6 nM [3H]-Citalopram, 60 min at 25° C.

Sequence of Rat SERT (P31652 whole entry): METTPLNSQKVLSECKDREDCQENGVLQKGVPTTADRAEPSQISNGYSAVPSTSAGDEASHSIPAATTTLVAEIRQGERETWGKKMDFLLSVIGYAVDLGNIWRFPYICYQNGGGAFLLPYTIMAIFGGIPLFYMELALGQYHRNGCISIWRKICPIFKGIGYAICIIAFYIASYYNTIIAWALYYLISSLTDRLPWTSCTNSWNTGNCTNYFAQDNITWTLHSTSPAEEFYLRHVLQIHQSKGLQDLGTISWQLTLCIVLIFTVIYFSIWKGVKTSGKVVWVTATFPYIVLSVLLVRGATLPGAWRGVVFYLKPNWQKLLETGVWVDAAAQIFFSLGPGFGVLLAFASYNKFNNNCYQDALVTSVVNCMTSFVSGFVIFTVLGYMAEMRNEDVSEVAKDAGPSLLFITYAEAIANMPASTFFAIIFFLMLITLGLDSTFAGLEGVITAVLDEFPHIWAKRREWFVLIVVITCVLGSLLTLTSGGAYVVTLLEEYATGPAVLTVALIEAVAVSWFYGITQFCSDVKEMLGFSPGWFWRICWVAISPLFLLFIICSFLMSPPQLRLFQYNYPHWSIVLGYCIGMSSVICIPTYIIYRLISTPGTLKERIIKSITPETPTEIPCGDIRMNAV
T2 sequence (P31645 whole entry): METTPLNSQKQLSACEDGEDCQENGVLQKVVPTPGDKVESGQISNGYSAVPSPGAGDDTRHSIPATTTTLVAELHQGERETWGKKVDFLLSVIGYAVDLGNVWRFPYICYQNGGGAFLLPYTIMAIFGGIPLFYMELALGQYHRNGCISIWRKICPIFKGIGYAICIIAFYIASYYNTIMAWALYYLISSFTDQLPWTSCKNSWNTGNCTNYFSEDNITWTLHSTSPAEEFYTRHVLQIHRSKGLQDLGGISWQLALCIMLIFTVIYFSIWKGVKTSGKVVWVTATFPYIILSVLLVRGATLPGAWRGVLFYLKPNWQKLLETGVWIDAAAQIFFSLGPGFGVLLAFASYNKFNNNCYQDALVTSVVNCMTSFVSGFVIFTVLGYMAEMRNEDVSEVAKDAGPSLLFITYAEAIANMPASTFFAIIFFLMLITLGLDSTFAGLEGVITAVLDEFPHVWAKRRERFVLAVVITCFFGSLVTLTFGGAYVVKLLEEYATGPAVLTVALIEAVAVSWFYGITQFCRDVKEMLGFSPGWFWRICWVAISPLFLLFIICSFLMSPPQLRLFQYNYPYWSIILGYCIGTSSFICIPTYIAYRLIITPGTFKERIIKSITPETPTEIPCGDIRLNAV
T1 sequence (Q9Y5N1 whole entry): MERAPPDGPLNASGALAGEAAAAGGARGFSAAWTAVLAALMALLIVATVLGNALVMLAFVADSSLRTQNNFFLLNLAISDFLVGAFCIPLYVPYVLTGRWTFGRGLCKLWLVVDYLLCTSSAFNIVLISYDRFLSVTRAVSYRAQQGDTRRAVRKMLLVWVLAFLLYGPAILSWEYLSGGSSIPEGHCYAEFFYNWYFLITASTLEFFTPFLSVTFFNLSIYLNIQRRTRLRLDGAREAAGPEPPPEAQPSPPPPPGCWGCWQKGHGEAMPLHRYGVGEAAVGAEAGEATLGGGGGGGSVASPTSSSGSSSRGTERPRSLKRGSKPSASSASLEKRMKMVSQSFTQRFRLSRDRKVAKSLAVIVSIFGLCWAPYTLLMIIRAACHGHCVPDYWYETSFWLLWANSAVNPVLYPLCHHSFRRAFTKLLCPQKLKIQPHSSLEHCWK

Row | Structure (SMILES) | Ki (human H3 receptor) | Ki (Rat SERT) | Ki (human SERT) | Ki (Rat SERT; [1]) | Ki (Rat SERT; [2])
1 | CN1Cc2cc(OCCCN3CCCCC3)ncc2C(c2ccc(Cl)c(Cl)c2)C1 (single isomer, unassigned; enantiomer a) [Example 38, 4-(3,4-Dichloro-phenyl)-2-methyl-7-(3-piperidin-1-yl-propoxy)-1,2,3,4-tetrahydro-[2,6]-naphthyridine (enantiomer A)] | 50 nM |  |  | 56 nM | 
2 | Clc1ccc(C2CNCc3cc(OCCCN4CCCCC4)ncc32)cc1Cl (single isomer, unassigned; enantiomer a) [Example 45, 4-(3,4-Dichloro-phenyl)-7-(3-piperidin-1-yl-propoxy)-1,2,3,4-tetrahydro-[2,6]-naphthyridine (enantiomer A)] | 4 nM | 101 nM |  |  | 
3 | CN1Cc2cc(OCCCN3CCCCC3)ncc2C(c2ccc(Cl)c(Cl)c2)C1 (single isomer, unassigned; enantiomer b) [Example 39, 4-(3,4-Dichloro-phenyl)-2-methyl-7-(3-piperidin-1-yl-propoxy)-1,2,3,4-tetrahydro-[2,6]-naphthyridine (enantiomer B)] | 42 nM |  |  | 233 nM | 
4 | Clc1ccc(C2CNCc3cc(OCCCN4CCCCC4)ncc32)cc1Cl (single isomer, unassigned; enantiomer b) [Example 46, 4-(3,4-Dichloro-phenyl)-7-(3-piperidin-1-yl-propoxy)-1,2,3,4-tetrahydro-[2,6]-naphthyridine (enantiomer B)] | 13 nM |  | 16 nM | 17 nM | 
5 | CN1Cc2cc(OCCCN3CCCCC3)ncc2C(c2ccccc2)C1 (centres unmarked) [Example 3, 2-Methyl-4-phenyl-7-(3-piperidin-1-yl-propoxy)-1,2,3,4-tetrahydro-[2,6]-naphthyridine] | 5 nM |  | 1140 nM |  | 569 nM
6 | COc1ccc(C2CN(C)Cc3cc(OCCCN4CCCCC4)ncc32)cc1 (centres unmarked) [Example 8, 4-(4-Methoxy-phenyl)-2-methyl-7-(3-piperidin-1-yl-propoxy)-1,2,3,4-tetrahydro-[2,6]-naphthyridine] | 12 nM |  | 107 nM |  | 34 nM
7 | COc1ccc(C2CNCc3cc(OCCC4CCCN4C)ncc32)cc1 (centres unmarked) [Example 9, 4-(4-Methoxy-phenyl)-7-[2-(1-methyl-pyrrolidin-2-yl)-ethoxy]-1,2,3,4-tetrahydro-[2,6]-naphthyridine] | 3 nM |  |  | 43 nM | 
8 | COc1ccc(C2CN(C)Cc3cc(OCCC4CCCN4C)ncc32)cc1 (centres unmarked) [Example 10, 4-(4-Methoxy-phenyl)-2-methyl-7-[2-(1-methyl-pyrrolidin-2-yl)-ethoxy]-1,2,3,4-tetrahydro-[2,6]-naphthyridine] | 4 nM | 20 nM |  |  | 
9 | COc1ccc(C2CNCc3cc(OCCCN4CCOCC4)ncc32)cc1 (centres unmarked) [Example 11, 4-(4-Methoxy-phenyl)-7-(3-morpholin-4-yl-propoxy)-1,2,3,4-tetrahydro-[2,6]-naphthyridine] | 43 nM |  | 189 nM |  | 53 nM
10 | COc1ccc(C2CN(C)Cc3cc(OCCCN4CCOCC4)ncc32)cc1 (centres unmarked) [Example 12, 4-(4-Methoxy-phenyl)-2-methyl-7-(3-morpholin-4-yl-propoxy)-1,2,3,4-tetrahydro-[2,6]-naphthyridine] | 90 nM |  | 70 nM |  | 29 nM
11 | COc1cccc(C2CN(C)Cc3cc(OCCCN4CCCCC4)ncc32)c1 (centres unmarked) [Example 14, 4-(3-Methoxy-phenyl)-2-methyl-7-(3-piperidin-1-yl-propoxy)-1,2,3,4-tetrahydro-[2,6]-naphthyridine] | 8 nM |  | 303 nM |  | 59 nM
12 | COc1ccc(C2CNCc3cc(OCCCN4CCC(F)(F)CC4)ncc32)cc1 (centres unmarked) [Example 19, 7-[3-(4,4-Difluoro-piperidin-1-yl)-propoxy]-4-(4-methoxy-phenyl)-1,2,3,4-tetrahydro-[2,6]-naphthyridine] | 208 nM | 56 nM | 51 nM |  | 
13 | CCN(CC)CCCOc1cc2c(cn1)C(c1ccc(OC)cc1)CNC2 (centres unmarked) [Example 20, Diethyl-{3-[8-(4-methoxy-phenyl)-5,6,7,8-tetrahydro-[2,6]naphthyridin-3-yloxy]-propyl}-amine] | 23 nM |  | 226 nM |  | 129 nM
14 | CN1Cc2cc(OCCCN3CCCCC3)ncc2C(c2cccc(Cl)c2)C1 (centres unmarked) [Example 27, 4-(3-Chloro-phenyl)-2-methyl-7-(3-piperidin-1-yl-propoxy)-1,2,3,4-tetrahydro-[2,6]-naphthyridine] | 7 nM |  | 826 nM |  | 144 nM
15 | COc1ccc(C2CN(C)Cc3cc(OCC4CCN(C(C)C)CC4)ncc32)cc1 (centres unmarked) [Example 40, 7-(1-Isopropyl-piperidin-4-ylmethoxy)-4-(4-methoxy-phenyl)-2-methyl-1,2,3,4-tetrahydro-[2,6]-naphthyridine] | 13 nM |  | 62 nM |  | 45 nM
16 | CC(C)N1CCC(COc2cc3c(cn2)C(c2ccc(Cl)c(Cl)c2)CN(C)C3)CC1 (centres unmarked) [Example 41, 4-(3,4-Dichloro-phenyl)-7-(1-isopropyl-piperidin-4-ylmethoxy)-2-methyl-1,2,3,4-tetrahydro-[2,6]naphthyridine] | 13 nM |  | 31 nM |  | 23 nM

Further lines, with some results ahead:

Row | Ki (human H3 receptor) | Ki (Rat SERT) | Ki (human SERT) | Structure (SMILES) | Ki (Rat SERT; [1]) | Ki (Rat SERT; [2])
17 |  | 87 nM |  | COc1ccc(C2CNCc3cc(OC4CCN(Cc5ccccc5)CC4)ncc32)cc1 (centres unmarked) [Example 22, 7-(1-Benzyl-piperidin-4-yloxy)-4-(4-methoxy-phenyl)-1,2,3,4-tetrahydro-[2,6]-naphthyridine] |  | 
18 | 44 nM |  | 611 nM | Clc1ccc(C2CNCc3cc(OCCCN4CCOCC4)ncc32)cc1Cl (centres unmarked) [Example 26, 4-(3,4-Dichloro-phenyl)-7-(3-morpholin-4-yl-propoxy)-1,2,3,4-tetrahydro-[2,6]-naphthyridine] | 64 nM | 
19 | 264 nM |  |  | COc1ccc(C2CN(C)Cc3cc(OCCCN4CCC(F)(F)CC4)ncc32)cc1 (centres unmarked) [Example 28, 7-[3-(4,4-Difluoro-piperidin-1-yl)-propoxy]-4-(4-methoxy-phenyl)-2-methyl-1,2,3,4-tetrahydro-[2,6]naphthyridine] | 129 nM | 
20 | 13 nM |  | 66 nM | CCN(CC)CCCOc1cc2c(cn1)C(c1ccc(OC)cc1)CN(C)C2 (centres unmarked) [Example 29, Diethyl-{3-[8-(4-methoxy-phenyl)-6-methyl-5,6,7,8-tetrahydro-[2,6]naphthyridin-3-yloxy]-propyl}-amine] |  | 19 nM
21 | 16 nM |  | 30 nM | CCN(CC)CCCOc1cc2c(cn1)C(c1ccc(Cl)c(Cl)c1)CN(C)C2 (centres unmarked) [Example 30, {3-[8-(3,4-Dichloro-phenyl)-6-methyl-5,6,7,8-tetrahydro-[2,6]naphthyridin-3-yloxy]-propyl}-diethyl-amine] |  | 33 nM
22 | 7 nM | 26 nM | 147 nM | CN1Cc2cc(OCCCN3CCCCC3)ncc2C(c2ccc(F)c(Cl)c2)C1 (centres unmarked) [Example 35, 4-(3-Chloro-4-fluoro-phenyl)-2-methyl-7-(3-piperidin-1-yl-propoxy)-1,2,3,4-tetrahydro-[2,6]naphthyridine] |  | 
23 | 15 nM |  | 106 nM | CN1Cc2cc(OCCCN3CCCCC3)ncc2C(c2ccc(Cl)cc2)C1 (centres unmarked) [Example 36, 4-(4-Chloro-phenyl)-2-methyl-7-(3-piperidin-1-yl-propoxy)-1,2,3,4-tetrahydro-[2,6]naphthyridine] |  | 22 nM
24 |  | 106 nM |  | COc1ccc(C2CNCc3cc(OC4CCNCC4)ncc32)cc1 (centres unmarked) [Example 42, 4-(4-Methoxy-phenyl)-7-(piperidin-4-yloxy)-1,2,3,4-tetrahydro-[2,6]naphthyridine] |  | 
25 | 796 nM | 137 nM | 1020 nM | COc1ccc(C2CN(C)Cc3cc(OC4CCN(C)CC4)ncc32)cc1 (centres unmarked) [Example 43, 4-(4-Methoxy-phenyl)-2-methyl-7-(1-methyl-piperidin-4-yloxy)-1,2,3,4-tetrahydro-[2,6]naphthyridine] |  | 
26 | 18 nM | 74 nM | 70 nM | FC(F)(F)Oc1ccc(C2CNCc3cc(OCCCN4CCCCC4)ncc32)cc1 (centres unmarked) [Example 44, 7-(3-Piperidin-1-yl-propoxy)-4-(4-trifluoromethoxy-phenyl)-1,2,3,4-tetrahydro-[2,6]naphthyridine] |  | 
27 | 45 nM | 1000 nM | 2000 nM | COc1ccc(C2CN(C)Cc3cc(C#CCCN4CCCCC4)cnc32)cc1 (centres unmarked) [Example 48, 8-(4-Methoxy-phenyl)-6-methyl-3-(4-piperidin-1-yl-but-1-ynyl)-5,6,7,8-tetrahydro-[1,6]naphthyridine trifluoroacetic acid salt] |  | 
28 | 78 nM | 623 nM | 2000 nM | COc1ccc(C2CN(C)Cc3cc(CCCCN4CCCCC4)cnc32)cc1 (centres unmarked) [Example 49, 8-(4-Methoxy-phenyl)-6-methyl-3-(4-piperidin-1-yl-butyl)-5,6,7,8-tetrahydro-[1,6]-naphthyridine trifluoroacetic acid salt] |  | 
29 | 1 nM | 4 nM | 7 nM | COc1ccc(C2CN(C)Cc3nc(OCCCN4CCCCC4)ccc32)cc1 (centres unmarked) [Example 50, 5-(4-Methoxy-phenyl)-7-methyl-2-(3-piperidin-1-yl-propoxy)-5,6,7,8-tetrahydro-[1,7]naphthyridine] |  | 
30 | 11 nM | 21 nM | 32 nM | COc1ccc(C2CN(C)Cc3nc(C#CCCN4CCCCC4)ccc32)cc1 (centres unmarked) [Example 51, 5-(4-Methoxy-phenyl)-7-methyl-2-(4-piperidin-1-yl-but-1-ynyl)-5,6,7,8-tetrahydro-[1,7]naphthyridine] |  | 
